Source: patent US20050244427A1, “Isolation and production of bioactive marine products” (priority 2004, published 2005)

System: Symbiodinium cells isolated from Eunicea fusca
Assay: Effect of plant growth factors on fuscol production in in vitro cultures of alga cells isolated from Eunicea fusca
Format: cell-based
Conditions: One hundred μM added for 48 hours after 24 hours in culture medium; compared with untreated control cells; RP HPLC, detection at 240 nm; FIG. 4
Protocol: FIG. 4 is a graph showing the induction of fuscol production in Symbiodinium cells isolated from Eunicea fusca with Methyl Jasmonate, Giberellic Acid and Salicyclic Acid.
Live Eunicea fusca was collected from Florida Keys. The tissue was homogenized in a blender using 50:50 DI/Filtered Seawater (FSW). The homogenate was strained into 50 mL Falcon tubes and centrifuged at 160×g for 5 minutes. The supernatant was discarded and the pellet was resuspended in 50:50 DI/FSW. The sample was centrifuged again, followed by three rounds of rinsing and centrifuging until the supernatant was clear. The cell pellet was layered over a Percoll gradient (30% and 70%) and centrifuged at 38×g for 10 minutes. Cells on the 30/70% interface were collected using a plastic pipet and rinsed two times in 50:50 DI/FSW water. Cells were examined by light microscopy to assess cell purity and to count the number of cells. 2.38×10^8 cells (500 μL) were removed from the sample and diluted to 2 mL with tris buffer (20 mM containing 3 mM EDTA, 5 mM MgCl2 and 5 mM β-mercaptoethanol). The sample was incubated with 1μ Ci ^3H-GGPP for 24 hrs at 29° C. and 180 RPM. The cells were centrifuged and the buffer was removed using a syringe and filtered into a scintillation vial. The cells were extracted with methylene chloride and ethyl acetate (8 times) followed by filtration into the scintillation vial containing the buffer. The crude extract was dried and weighed. The dried extract weighed 7.08 mg. The extract was partitioned between MeOH:H2O 9:1 and hexanes. The hexanes layer was dried and weighed. This layer weighed 4.77 mg. Water was added to make MeOH:H2O at a ratio of 1:1 and partitioned with methylene chloride. The CH2Cl2 layer was dried and weighed. This layer weighed 1.67 mg.
Referring to FIG. 4, the effect of growth factors on the production of fuscol in in vitro cultures of alga cells isolated from Eunicea fusca (as described above) was analyzed. […] The cells were then extracted and fuscol concentrations were determined by standard chromatographic methods (RP HPLC, detection at λ 240 nm).

SMILES	production of fuscol (fuscol concentration in extracted cells)
O=C(O)c1ccccc1O [salicyclic acid]	Significantly more fuscol was produced
CC/C=C\CC1C(=O)CCC1CC(=O)OC (stereo not drawn) [methyl jasmonate]	Significantly more fuscol was produced
C=C1C[C@]23CC1(O)CC[C@H]2[C@@]12C=C[C@H](O)C(C)(C(=O)O1)[C@H]2[C@@H]3C(=O)O [giberellic acid]	Significantly more fuscol was produced
